According to article PMC5008412, “A phase I study of indoximod in patients with advanced malignancies” (Oncotarget, 2016):

Experiments:
[1] = Plasma pharmacokinetics (LC-MS/MS, non-compartmental); assay type: in vivo, human
Description: A validated liquid chromatography triple-quadrupole with tandem mass spectrometry method was used to determine levels of indoximod in plasma. The methods were validated per International Conference on Harmonization/Food and Drug Administration guidelines. Plasma samples were prepared for chromatographic injections by protein precipitation as described in Supplement 1.
Plasma concentration-time data for indoximod were analyzed by non-compartmental pharmacokinetic methods using Phoenix WinNonlin 6.3 (Pharsight Corp., Mountain View, CA). Data in the terminal, log-linear phase were analyzed by linear regression to estimate terminal elimination rate constant and half-life. These additional pharmacokinetic parameters were also determined: AUC0-48, AUC0-inf, Cmax, Tmax, terminal half-life (t1/2), apparent clearance, and apparent volume of distribution.

[2] = parameters: method as in PMID 17234791; details: combined with cyclophosphamide; compared among forms of 1-methyl-tryptophan; cited from earlier work
advanced solid tumors = experiment: Response evaluation by RECIST 1.1; assay type: in vivo, human
Description: Overall response rate was determined via the criteria described by the RECIST 1.1 guidelines. Baseline evaluations were conducted within 14 days before start of therapy, with CT scans performed within 4 weeks before start of therapy. Patients were then reevaluated every 8 weeks with diagnostic CT scans. The best overall response achieved during study therapy was recorded for each patient. The response data presented herein underwent site radiology review. The duration of response was measured from the time criteria were met for complete or partial response until the first date that recurrent or progressive disease was documented.

IDO = experiment: Plasma kynurenine/tryptophan pharmacodynamics (HPLC); assay type: in vivo, human
Description: (§1) Plasma kynurenine and tryptophan levels were measured via high-performance liquid chromatography at baseline and during weeks 1-4 of treatment using previously published methods. Humoral responses toward multiple cancer-testis antigens were analyzed by a proprietary whole protein microarray (Serametrix, Carlsbad, CA) in a 200-μL plasma aliquot, collected at blood draws at baseline and at week 5. Autoantibody titers were reported as relative fluorescence units using human anti-IgG reporter antibodies with blank and predetermined IgG antibody titer control spots using a Perkin Elmer fluorescence scanner.

C-reactive protein = C-reactive protein levels; assay type: in vivo, human
From the text: Physical examinations, autoimmunity evaluations, complete blood counts, metabolic panels, and C-reactive protein levels were obtained at baseline and every 2 weeks. Pituitary function tests (thyroid-stimulating hormone, free T4, luteinizing hormone, follicular stimulating hormone, and adrenocortical hormone) and anti-nuclear autoantibody titers were obtained at baseline and every 4 weeks.

[3] = system: circulating T cell populations; experiment: T-cell flow cytometry panel on patient blood; assay type: in vivo, human
From the text: At weeks 1, 3, 5, and 7 of treatment, patient blood was collected into 3 heparinized 10-mL Vacutainer tubes. Samples underwent Ficoll separation and cryopreservation for subsequent analyses. A total of 16 patients across dose levels 4-10 had satisfactory samples collected at all 4 time points for multiparameter flow analyses (see Table 1 for definition of dose levels). Flow cytometry analyses using a T-cell panel (CCR6-FITC, CD45RO-PerCP-Cy5, CD45RA-BV421, HLADR-BV650, CD4-PE, CD25-PECy7, CD127-Alexa 647, CD3- BUV395, Live/Dead Aqua, CD8-BUV737) to determine changes in circulating levels of T-regulatory cells (CD4+CD25+CD127low), naïve (CD45RA+) versus memory (CCR6+/−CD45RO+) CD4 and CD8 T cells, and activated T-cell subsets (HLA-DR+) were carried out in the Moffitt Flow Cytometry Core on an LSRII with compensation beads and fluorescence minus one controls. Gating was done using fluorescence minus one thresholds, and analyses were done using FloJo X software. Mean percentages of the populations were calculated from single, live, CD3+-gated events and analyzed across the 4 time points for the entire group, with lower (dose levels 4-8) versus higher (dose levels 9-10) dose levels compared using ANOVA in Prism GraphPad. P levels of 0.05 indicated significance.

[4] = system: 30 different tumor-associated antigens; experiment: Autoantibody titers to tumor-associated antigens (Serametrix protein microarray); assay type: in vivo, human; details: week 5; of 40 patients evaluated; P < 0.05
Description: as §1

[5] = system: Lewis lung cancer mouse xenografts; parameters: method as in PMID 15711557, PMID 16166276; details: transplanted Lewis lung cancer mouse xenografts; cited from earlier work

| SMILES | half-life ([1]; human, plasma, po) [min] | Cmax ([1]; human, plasma, 2000 mg twice/day oral) [µM] | dose range with linear dose response of AUC and Cmax ([1]; oral) | single doses with plateauing of peak serum levels ([1]; oral) [mg] | drug renally cleared ([1]; patients) [%] | oral bioavailability ([1]; patients) | time at which Cmax occurred ([1]; plasma, oral) [h] | anticipated therapeutic dose of 10 to 15 μM ([1]; serum drug level with current dosing schedules) | in vivo antitumor activity [2] | patients with stable disease >6 months (advanced solid tumors; of 48 patients) | single-agent antitumor activity (advanced solid tumors; patients with advanced solid tumors) | best response (advanced solid tumors; site radiologist assessment, RECIST 1.1) | effect on circulating kynurenine levels (IDO) | C reactive protein (CRP) levels (C-reactive protein; across multiple dose levels) | mean level of C-reactive protein (C-reactive protein; week 3 of treatment, baseline 3.81 mg/dL, P = 0.02) [mg/dL] | changes in T cell populations (Treg, naive/memory CD4 and CD8, activated subsets) ([3]; baseline through week 7, group as a whole) | dose-dependent changes in T cell populations ([3]; higher dose levels versus lower dose levels) | patients with significantly higher autoantibody titers than at baseline [4] | effect on tumor growth [5] |
| --- | --- | --- | --- | --- | --- | --- | --- | --- | --- | --- | --- | --- | --- | --- | --- | --- | --- | --- | --- |
| Cn1cc(C[C@@H](N)C(=O)O)c2ccccc21 [indoximod, 1-methyl-D-tryptophan] | 630 | ~12 | up to 800 mg once daily | ≥ 1600 | 20 | good | 2.9 | reached | superior | 5 | modest | stable disease | lack of effect | increased | 5.13 | did not identify any statistically significant changes | no detectable dose-dependent changes | 12 |  |
| Cn1cc(CC(N)C(=O)O)c2ccccc21 (racemic) [1-methyl-DL-tryptophan] |  |  |  |  |  |  |  |  |  |  |  |  |  |  |  |  |  |  | delaying growth |
